Measured values taken from ChEMBL document CHEMBL3886943, “C2-azaspiro iminothiazine dioxides as BACE inhibitors, compositions, and their use” (2016).
pKi: −log10 of the molar value.

Key:
Beta-secretase 2 = biological target: T1, Beta-secretase 2 (Homo sapiens, UniProt Q9Y5Z0); experiment: DMSO is present at 5% final concentration in the assay. Following laser excitation of sample wells at 320 nm, the fluorescence signal at 620 nm is collected for 400 ms following a 50 us delay on a RUBYstar HTRF plate reader (BMG Labtechnologies). Raw RFU data is normalized to maximum (1.0 nM BACE/DMSO) and minimum (no enzyme/DMSO) RFU values. […] The Ki values are calculated from the IC50 using the Cheng-Prusoff equation.
T1 sequence (Q9Y5Z0 whole entry): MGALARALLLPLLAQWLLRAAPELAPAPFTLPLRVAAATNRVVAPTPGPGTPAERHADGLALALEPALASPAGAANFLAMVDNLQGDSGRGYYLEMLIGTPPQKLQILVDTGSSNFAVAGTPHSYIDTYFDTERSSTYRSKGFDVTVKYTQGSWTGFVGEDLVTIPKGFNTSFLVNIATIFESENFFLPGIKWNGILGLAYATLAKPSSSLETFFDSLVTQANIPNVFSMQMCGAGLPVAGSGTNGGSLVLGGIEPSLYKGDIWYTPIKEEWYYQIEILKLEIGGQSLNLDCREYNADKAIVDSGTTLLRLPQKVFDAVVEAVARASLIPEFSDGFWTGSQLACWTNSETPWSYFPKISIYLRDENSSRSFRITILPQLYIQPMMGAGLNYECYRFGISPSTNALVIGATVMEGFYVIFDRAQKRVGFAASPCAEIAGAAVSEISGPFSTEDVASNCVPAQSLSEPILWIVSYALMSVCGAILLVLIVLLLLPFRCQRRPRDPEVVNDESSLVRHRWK

Beta-secretase 1 = Beta-secretase 1 (Homo sapiens, UniProt P56817); experiment: This assay monitors the increase of 620 nm fluorescence that resulted from BACE1 cleavage of an APPswedish APPswe mutant peptide FRET substrate (QSY7-[…]-Europium-amide). This substrate contains an N-terminal QSY7 moiety that serves as a quencher of the C-terminal Europium fluorophore (620 nm Em). […] Reactions are initiated by addition of 10 ul of 600 nM QSY7-APPswe-Eu substrate (200 nM final) to give a final reaction volume of 30 ul in a 384 well Nunc HTRF plate. The reactions are incubated at 30° C. for 1.5 hours. The 620 nm fluorescence is then read on a Rubystar HTRF plate reader (BMG Labtechnologies) using a 50 millisecond delay followed by a 400 millisecond acquisition time window. Inhibitor IC50 values are derived from non-linear regression analysis of concentration response curves.
Beta-secretase 1, sequence (P56817 whole entry): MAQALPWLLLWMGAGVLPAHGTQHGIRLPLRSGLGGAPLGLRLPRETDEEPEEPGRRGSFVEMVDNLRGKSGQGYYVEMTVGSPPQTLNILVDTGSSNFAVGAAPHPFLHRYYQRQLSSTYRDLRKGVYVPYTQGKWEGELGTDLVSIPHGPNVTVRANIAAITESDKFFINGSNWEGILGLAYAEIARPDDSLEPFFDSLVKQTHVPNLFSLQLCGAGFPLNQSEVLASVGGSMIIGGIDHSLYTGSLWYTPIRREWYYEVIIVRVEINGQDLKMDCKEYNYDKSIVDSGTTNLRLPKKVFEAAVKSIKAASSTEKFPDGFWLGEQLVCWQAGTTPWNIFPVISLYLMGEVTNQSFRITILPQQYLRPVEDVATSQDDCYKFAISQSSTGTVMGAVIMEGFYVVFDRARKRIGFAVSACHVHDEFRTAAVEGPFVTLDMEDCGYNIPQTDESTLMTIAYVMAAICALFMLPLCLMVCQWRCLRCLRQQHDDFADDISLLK

pKi (Beta-secretase 2): 6.68
pKi (Beta-secretase 1): 5.77
SMILES: CN1CCC2(CC1)C(=N)N[C@](C)(c1cc(NC(=O)C(F)F)ccc1F)CS2(=O)=O
